Data published in US20070292888A1, “Methods for Measuring Enzyme Activities in Cells, Blood, Tumors and Tissues” (GEN-PATH PHARMACEUTICALS, INC., priority 2004, published 2007).

Target: T1, TK (Homo sapiens, UniProt P29401)
T1 sequence (P29401 1-623): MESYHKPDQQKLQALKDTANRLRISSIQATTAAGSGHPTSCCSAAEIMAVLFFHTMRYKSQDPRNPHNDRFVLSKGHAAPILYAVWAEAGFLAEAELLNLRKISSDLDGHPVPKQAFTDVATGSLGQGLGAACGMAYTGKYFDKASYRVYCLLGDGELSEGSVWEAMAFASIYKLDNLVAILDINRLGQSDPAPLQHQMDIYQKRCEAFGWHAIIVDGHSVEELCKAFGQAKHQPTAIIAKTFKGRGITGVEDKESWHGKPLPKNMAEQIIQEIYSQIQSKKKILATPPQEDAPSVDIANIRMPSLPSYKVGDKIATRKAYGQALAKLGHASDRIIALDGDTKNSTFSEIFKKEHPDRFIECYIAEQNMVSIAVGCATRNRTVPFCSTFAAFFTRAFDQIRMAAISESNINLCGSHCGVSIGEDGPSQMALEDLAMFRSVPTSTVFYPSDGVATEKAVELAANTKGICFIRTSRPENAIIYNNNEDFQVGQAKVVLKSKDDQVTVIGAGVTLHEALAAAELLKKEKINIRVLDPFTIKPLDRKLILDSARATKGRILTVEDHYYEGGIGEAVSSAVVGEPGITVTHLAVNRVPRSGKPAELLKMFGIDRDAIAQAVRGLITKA
Experiment: Thiamine competition and washout time course of TK inhibition in cells
Type: cell-based
Parameters: endogenous in cells; host or cells: HCT116
Details: HCT116 cells, TDM, thiamine 0-12 μM, 48 hours; 12 μM thiamine overcomes inhibition
Experimental: HCT116 cells were plated in clear-bottomed 96-well culture plates, at a density of 8000 cells/well in TDM. The following morning, N3PT and different amounts of thiamine (12 μM, 2.4 μM, 0.48 μM, 0.096 μM, 0.0192 μM, 0 μM) were added to the cells. Forty-eight hours later, plates were inverted to remove media and blotted on paper towels to remove residual media. Plates were immediately assayed for enzymatic TK activity. 80 μl of lysis buffer was added to each well, and the cells incubated at RT for 10 min to allow cell lysis. After lysis, 20 μl of the aforementioned 5× reaction mix was added to each well to initiate the reaction. Reactions were monitored as described above.
Cells were plated in TDM media 24 hours earlier, different concentration of N3PT and 100 nM thiamine were added to the cells and treated for 48 hour to allow N3PT to exert its inhibitory effect (day 2; d2). The media was then changed to contain only 100 nM thiamine and one plate was assayed every day for the next five days (d3 to d7).

Which “Inhibition of TK in the presence of increased concentrations of thiamine” value does the source give for `Cc1ccc(C[n+]2csc(CCO)c2C)c(N)n1` [N3PT, 3-[(2-amino-6-methyl-3-pyridinyl)methyl]-5-(2-hydroxyethyl)-4-methyl thiazolium] here?
Its value is “reduced by thiamine in a concentration dependent manner”.
